According to patent publication US12102087B2 (priority 2012, dated 2024):
Read-outs that look alike come from different tables or passages of the source.

Experiments:
Assay type in all cases: in vivo
Phytophthora infestans = experiment: whole plant or invertebrate; details: for pest or weed control at 0.2 ppm: application rate 0.2 ppm a.i.
Sphaerotheca fuliginea = experiment: Sphaerotheca test (cucumbers)/preventive
Description: (§1) A synergistic effect of fungicides is always present when the fungicidal activity of the active compound combinations exceeds the total of the activities of the active compounds when applied individually. The expected activity for a given combination of two active compounds can be calculated as follows (cf. Colby, S. R., “Calculating Synergistic and Antagonistic Responses of Herbicide Combinations”, Weeds 1967, 15, 20-22):
(§2) If • X is the efficacy when active compound A is applied at an application rate of m ppm (or g/ha), • Y is the efficacy when active compound B is applied at an application rate of n ppm (or g/ha), • E is the efficacy when the active compounds A and B are applied at application rates of m and n ppm (or g/ha), respectively, and
Sphaerotheca Test (Cucumbers)/Preventive • Solvent: 24.5 parts by weight of acetone • 24.5 parts by weight of dimethylacetamide • Emulsifier: 1 part by weight of alkylaryl polyglycol ether
(§3) To produce a suitable preparation of active compound, 1 part by weight of active compound is mixed with the stated amounts of solvent and emulsifier, and the concentrate is diluted with water to the desired concentration.
To test for preventive activity, young plants are sprayed with the preparation of active compound at the stated rate of application. After the spray coating has dried on, the plants are inoculated with an aqueous spore suspension of Sphaerotheca fuliginea. The plants are then placed in a greenhouse at approximately 23° C. and a relative atmospheric humidity of approximately 70%.
The test is evaluated 7 days after the inoculation. 0% means an efficacy which corresponds to that of the untreated control, while an efficacy of 100% means that no disease is observed.

Alternaria solani = experiment: Alternaria test (tomatoes)/preventive; details: Table 2; for pest or weed control at 20 ppm: application rate 20 ppm a.i.
Description: as §1, §2
Alternaria Test (Tomatoes)/Preventive • Solvent: 24.5 parts by weight of acetone • 24.5 parts by weight of dimethylacetamide • Emulsifier: 1 part by weight of alkylaryl polyglycol ether
as §3
To test for preventive activity, young plants are sprayed with the preparation of active compound at the stated rate of application. After the spray coating has dried on, the plants are inoculated with an aqueous spore suspension of Alternaria solani. The plants are then placed in an incubation cabinet at approximately 20° C. and a relative atmospheric humidity of 100%.
The test is evaluated 3 days after the inoculation. 0% means an efficacy which corresponds to that of the untreated control while an efficacy of 100% means that no disease is observed.

Venturia inaequalis = experiment: Venturia test (apples)/preventive; details: for pest or weed control at 2 ppm: application rate 2 ppm a.i.
Description: as §1, §2
Venturia test (apples)/preventive • Solvent: 24.5 parts by weight of acetone • 24.5 parts by weight of dimethylacetamide • Emulsifier: 1 part by weight of alkylaryl polyglycol ether
as §3
To test for preventive activity, young plants are sprayed with the preparation of active compound at the stated rate of application. After the spray coating has dried on, the plants are inoculated with an aqueous conidia suspension of the causal agent of apple scab (Venturia inaequalis) and then remain for 1 day in an incubation cabinet at approximately 20° C. and a relative atmospheric humidity of 100%.
The plants are then placed in a greenhouse at approximately 21° C. and a relative atmospheric humidity of approximately 90%.
The test is evaluated 10 days after the inoculation. 0% means an efficacy which corresponds to that of the untreated control, while an efficacy of 100% means that no disease is observed.

[1] = Table 6, application rate 2.5 ppm a.i.
[2] = Table 3, application rate 1.25 ppm a.i.
[3] = Table 3, application rate 2.5 ppm a.i.
[4] = Alternaria solani, 72 h, read-out: Efficacy in % found
[5] = Table 3, application rate 5 ppm a.i.
[6] = Table 9, application rate 50 ppm a.i.
[7] = Table 5, application rate 2.5 ppm a.i.
[8] = Table 7, application rate 1 ppm a.i.
[9] = Phytophthora infestans, 72 h, read-out: Efficacy in % found, Table 3, application rate 2.5 ppm a.i.
[10] = Venturia inaequalis, 240 h, Table 11, application rate 0.5 ppm a.i., read-out: Efficacy in % found
[11] = Phytophthora infestans, 72 h, read-out: Efficacy in % found, Table 4

propamocarb hydrochloride [10.10]
Efficacy in % found (Phytophthora infestans; [1]): 0% | Efficacy in % found (Sphaerotheca fuliginea; Table 9, application rate 200 ppm a.i.): 0% | Efficacy in % found (Sphaerotheca fuliginea; Table 9, application rate 400 ppm a.i.): 0%

CCCCCCCCc1c(CC)nc2ncnn2c1N [3.1, ametoctradin]
Efficacy in % found (Phytophthora infestans; [2]): 15% | Efficacy in % found (Phytophthora infestans; [3]): 22%

Cc1cc(C)nc(Nc2ccccc2)n1 [7.7, pyrimethanil]
pest or weed control at 20 ppm (Alternaria solani; [4]): 32%

fosetyl-aluminium [15.24]
Efficacy in % found (Phytophthora infestans; [3]): 0% | Efficacy in % found (Phytophthora infestans; [5]): 0%

[Cl-].[Cu+2].[Cu+2].[OH-].[OH-].[OH-] [5.8, copper oxychloride]
Efficacy in % found (Phytophthora infestans; [1]): 0% | Efficacy in % found (Sphaerotheca fuliginea; [6]): 10% | Efficacy in % found (Venturia inaequalis; Table 13, application rate 50 ppm a.i.): 8%

metiram [5.25]
Efficacy in % found (Phytophthora infestans; [1]): 15% | Efficacy in % found (Sphaerotheca fuliginea; [6]): 29% | Efficacy in % found (Venturia inaequalis; Table 13, application rate 100 ppm a.i.): 55%

CO/C=C(/C(=O)OC)c1ccccc1Oc1cc(Oc2ccccc2C#N)ncn1 [3.3, azoxystrobin]
Efficacy in % found (Venturia inaequalis; Table 11, application rate 0.25 ppm a.i.): 38%

Cc1ccc(C(C)NC(=O)[C@@H](NC(=O)OC(C)C)C(C)C)cc1 (stereo partly shown) [9.4, iprovalicarb]
Efficacy in % found (Phytophthora infestans; Table 4, application rate 2 ppm a.i.): 9%

N#Cc1c(Cl)c(Cl)c(Cl)c(C#N)c1Cl [5.4, chlorothalonil]
pest or weed control at 20 ppm (Alternaria solani; [4]): 5% | pest or weed control at 20 ppm (Venturia inaequalis; Venturia inaequalis, 240 h, Table 12, application rate 20 ppm a.i., read-out: Efficacy in % found): 14%

O=C1c2ccccc2C(=O)N1SC(Cl)(Cl)Cl [5.16, folpet]
pest or weed control at 10 ppm (Alternaria solani; Alternaria solani, 72 h, application rate 10 ppm a.i., read-out: Efficacy in % found): 0%

CC(C)(C)C(O)(CCc1ccc(Cl)cc1)Cn1cncn1 (stereo not shown) [1.47, tebuconazole]
pest or weed control at 2 ppm (Venturia inaequalis; Venturia inaequalis, 240 h, Table 11, read-out: Efficacy in % found): 11%

Cn1cc(C(=O)Nc2cccc3c2[C@@H]2CC[C@H]3C2=C(Cl)Cl)c(C(F)F)n1 (racemic) [2.29, benzovindiflupyr]
Efficacy in % found (Phytophthora infestans; [7]): 0% | Efficacy in % found (Sphaerotheca fuliginea; Table 7, application rate 0.5 ppm a.i.): 0%

OP(O)O [15.41, phosphorous acid]
Efficacy in % found (Phytophthora infestans; [3]): 0% | Efficacy in % found (Phytophthora infestans; [5]): 13%

CC(C)C1C2CCC1c1c(NC(=O)c3cn(C)nc3C(F)F)cccc12 (stereo not shown) [2.12, isopyrazam]
Efficacy in % found (Phytophthora infestans; [7]): 0% | Efficacy in % found (Sphaerotheca fuliginea; [8]): 19% | Efficacy in % found (Sphaerotheca fuliginea; Table 7, application rate 2 ppm a.i.): 57%

OC(Cc1ccccc1Cl)(Cn1nc[nH]c1=S)C1(Cl)CC1 (stereo not shown) [1.41, prothioconazole]
Efficacy in % found (Sphaerotheca fuliginea; Table 8, application rate 2 ppm a.i.): 19%

[Cu+2].[OH-].[OH-] [5.5, copper hydroxide]
Efficacy in % found (Phytophthora infestans; [1]): 18% | Efficacy in % found (Sphaerotheca fuliginea; Table 9, application rate 10 ppm a.i.): 29% | Efficacy in % found (Venturia inaequalis; Table 13, application rate 20 ppm a.i.): 25%

O=C(Nc1ccccc1-c1ccc(Cl)cc1)c1cccnc1Cl [2.2, boscalid]
Efficacy in % found (Sphaerotheca fuliginea; Table 8, application rate 20 ppm a.i.): 62% | Efficacy in % found (Sphaerotheca fuliginea; Table 8, application rate 40 ppm a.i.): 86% | pest or weed control at 20 ppm (Venturia inaequalis; Venturia inaequalis, 240 h, Table 11, application rate 20 ppm a.i., read-out: Efficacy in % found): 85%

O=[N+]([O-])c1cc(C(F)(F)F)c(Cl)c([N+](=O)[O-])c1Nc1ncc(C(F)(F)F)cc1Cl [14.4, fluazinam]
pest or weed control at 2.5 ppm (Phytophthora infestans; [9]): 0%

COC(c1ccc(Cl)cc1Cl)C(C)NC(=O)c1cn(C)nc1C(F)F (stereo not shown) [2.27, N-[1-(2,4-dichlorophenyl)-1-methoxypropan-2-yl]-3-(difluoromethyl)-1-methyl-1H-pyrazole-4-carboxamide]
pest or weed control at 2.5 ppm (Phytophthora infestans; Phytophthora infestans, 72 h, read-out: Efficacy in % found, Table 5, application rate 2.5 ppm a.i.): 0% | pest or weed control at 10 ppm (Phytophthora infestans; Phytophthora infestans, 72 h, read-out: Efficacy in % found, Table 5, application rate 10 ppm a.i.): 8% | Efficacy in % found (Sphaerotheca fuliginea; Table 7, application rate 4 ppm a.i.): 81% | pest or weed control at 2 ppm (Venturia inaequalis; Venturia inaequalis, 240 h, Table 10, read-out: Efficacy in % found): 31% | pest or weed control at 4 ppm (Venturia inaequalis; Venturia inaequalis, 240 h, Table 10, application rate 4 ppm a.i., read-out: Efficacy in % found): 93%

CC(C)[C@H](NC(=O)O)C(=O)N[C@H](C)c1nc2ccc(F)cc2s1 [9.1, benthiavalicarb]
Efficacy in % found (Phytophthora infestans; Table 4, application rate 0.5 ppm a.i.): 52%

Cc1c(Br)c2ccc(F)cc2n1S(=O)(=O)c1ncn(S(=O)(=O)N(C)C)n1 [3.2, amisulbrom]
Efficacy in % found (Phytophthora infestans; Table 4, application rate 1 ppm a.i.): 19%

Cn1c(=O)c2sc3c(=O)n(C)c(=O)c3sc2c1=O [15.60, 2,6-dimethyl-1H,5H-[1,4]dithiino[2,3-c:5,6-c′]dipyrrole-1,3,5,7(2H,6H)-tetrone]
pest or weed control at 50 ppm (Alternaria solani; Alternaria solani, 72 h, application rate 50 ppm a.i., read-out: Efficacy in % found): 32% | pest or weed control at 50 ppm (Venturia inaequalis; Venturia inaequalis, 240 h, Table 12, application rate 50 ppm a.i., read-out: Efficacy in % found): 24%

CON=C(C(=O)OC)c1ccccc1CON=C(C)c1cccc(C(F)(F)F)c1 [3.22, trifloxystrobin]
pest or weed control at 0.5 ppm (Venturia inaequalis; [10]): 77%

Cc1ccc(-c2c(Cl)nc(C#N)n2S(=O)(=O)N(C)C)cc1 [3.4, cyazofamid]
pest or weed control at 0.2 ppm (Phytophthora infestans; [11]): 8%

propineb [5.29]
Efficacy in % found (Alternaria solani; application rate 5 ppm a.i.): 0%

Cn1cc(C(=O)Nc2ccccc2-c2cc(F)c(F)c(F)c2)c(C(F)F)n1 [2.8, fluxapyroxad]
Efficacy in % found (Phytophthora infestans; [7]): 0% | Efficacy in % found (Sphaerotheca fuliginea; [8]): 38% | Efficacy in % found (Venturia inaequalis; Table 10, application rate 0.5 ppm a.i.): 25%

COc1ccc(C(=CC(=O)N2CCOCC2)c2ccc(Cl)cc2)cc1OC [9.2, dimethomorph]
pest or weed control at 1 ppm (Phytophthora infestans; Phytophthora infestans, 72 h, read-out: Efficacy in % found, Table 4, application rate 1 ppm a.i.): 20%

CSC1=N[C@@](C)(c2ccccc2)C(=O)N1Nc1ccccc1 [3.10, fenamidone]
pest or weed control at 0.5 ppm (Phytophthora infestans; Phytophthora infestans, 72 h, read-out: Efficacy in % found, Table 4, application rate 0.5 ppm a.i.): 3%

CO/N=C(/C1=NOCCO1)c1ccccc1Oc1ncnc(Oc2ccccc2Cl)c1F [3.12, fluoxastrobin]
pest or weed control at 0.5 ppm (Venturia inaequalis; [10]): 44%

COC(=O)N(OC)c1ccccc1COc1ccn(-c2ccc(Cl)cc2)n1 [3.17, pyraclostrobin]
pest or weed control at 0.5 ppm (Venturia inaequalis; [10]): 19%

metalaxyl-M (mefenoxam) [12.10]
Efficacy in % found (Phytophthora infestans; [2]): 10% | Efficacy in % found (Phytophthora infestans; [3]): 36%

Cn1cc(C(=O)Nc2ccc(F)cc2-c2ccc(Cl)c(Cl)c2)c(C(F)F)n1 [2.1, bixafen]
Efficacy in % found (Sphaerotheca fuliginea; [8]): 10% | Efficacy in % found (Venturia inaequalis; Table 10, application rate 1 ppm a.i.): 84%

CCNC(=O)NC(=O)/C(C#N)=N/OC [15.9, cymoxanil]
pest or weed control at 2.5 ppm (Phytophthora infestans; [9]): 0% | pest or weed control at 5 ppm (Phytophthora infestans; Phytophthora infestans, 72 h, read-out: Efficacy in % found, Table 3, application rate 5 ppm a.i.): 0%

CCCCCOC(=O)Nc1cccc(CON=C(c2ccccc2)c2nnnn2C)n1 [15.90, pentyl {6-[({[(1-methyl-1H-tetrazol-5-yl)(phenyl)methylidene]amino}oxy)methyl]pyridin-2-yl}carbamate]
pest or weed control at 0.2 ppm (Phytophthora infestans; [11]): 10%
